Assay results: US10233179B2, “Thiazoles and uses thereof” (AbbVie Inc., priority 2013, dated 2019)

Columns and labels:
[1] = tested on: RSV (Group A, Long Strain); assay: Antiviral cytopathic effect (CPE) protection assay, MTT readout; format: cell-based; conditions: human respiratory syncytial virus, 96 h; HEp-2 cells, 0.2 MOI RSV, 4 days incubation, protection from CPE by MTT
Experimental: HEp-2 cells and RSV (Group A, Long Strain) were obtained from the American Type Culture Collection (Manassas, Va.).
A cytopathic effect (CPE) protection assay was performed to determine the ability of a compound to protect the cells from viral infection and thus the CPE induced by viral infection. 96-Well plates were first seeded with 3×10^3 HEp-2 cells per well in Dulbecco's modified Eagle's medium (DMEM) containing 10% fetal bovine serum (FBS). One day after the cells were seeded, they were preincubated with serial dilutions of compounds prepared in 100 μL assay medium (DMEM mixed with F12 medium at a 1:1 ratio, supplemented with 2% FBS and 1 mM sodium pyruvate) for 1 hour at 37° C. 100 μL of assay medium containing 0.2 multiplicity of infection (MOI) of RSV was then added to each well of cells. In addition to wells containing infected cells incubated with compounds, each plate also contained replicates of two kinds of controls: (1) Virus control contained cells infected with 0.2 MOI of RSV in assay medium, (2) Uninfected cell control contained cells incubated with assay medium only. After 4 days of incubation at 37° C., the viability of cells was assessed using MTT (Thiazolyl blue tetrazolium bromide, Sigma). A stock solution of MTT, at a concentration of 4 mg/mL in phosphate-buffered saline, was added to all wells at 25 μL per well. Plates were further incubated for 4 hours, and each well was then treated with 50 μL of a solution containing 20% sodium dodecyl sulfate (SDS) and 0.02 N HCl. After an overnight incubation, the plates were measured on a BioTek® microtiter plate reader at wavelengths of 570 nm and 650 nm. The MTT detection is based on the fact that viable (uninfected) cells can reduce the tetrazolium salts into colored formazan products, which can then be quantitated by spectrometry. Based on the spectrometric absorbance of each sample, the percent of protection from CPE, which is an indicator of protection from viral infection, can be calculated for each compound and the 50% effective concentrations (EC50) can be calculated using a nonlinear regression curve fitting equation provided by the GraphPad Prism® 4 software.
Compounds were tested to determine both their antiviral and toxicity to determine their therapeutic window. Determination of the EC50 and TD50 of these active compounds were repeated one additional time to confirm the window.

[2] = tested on: HEp-2 cells; assay: Cytotoxicity assay (MTT) in parallel with the antiviral assay; format: cell-based
Experimental: HEp-2 cells and RSV (Group A, Long Strain) were obtained from the American Type Culture Collection (Manassas, Va.). Cytotoxicity of the compounds was determined in experiments done in parallel with the antiviral assays. To do this, 100 μL of assay medium was added to the wells of HEp-2 cells pretreated with 100 μL serially diluted compounds as described above. After 4 days of incubation, the viability of the cells was determined by the MTT assay in the same way as detailed in the “Antiviral Assay” method. Results were expressed as 50% toxicity dose (TD50) values. Compounds were tested to determine both their antiviral and toxicity to determine their therapeutic window. Determination of the EC50 and TD50 of these active compounds were repeated one additional time to confirm the window.

[3] = uninfected HEp-2 cells, 4 days incubation, MTT viability

Row | SMILES | EC50 [1] | MTT TD50 [2, 3] | MTT TD50 ([2]; human, 4 days)
1 | COc1ccccc1CN(Cc1cccn1-c1nccs1)C(C)c1cnn(-c2cccc(F)c2)c1C (stereo not shown) [Example 4, 1-[1-(3-fluorophenyl)-5-methyl-1H-pyrazol-4-yl]-N-(2-methoxybenzyl)-N-{[1-(1,3-thiazol-2-yl)-1H-pyrrol-2-yl]methyl}ethanamine] | > 480 nM | 0.48 µM | 
2 | Cc1c(C(C)N(Cc2ccc(Cl)cc2-c2ccnc(C(F)(F)F)n2)Cc2cccn2-c2nccs2)cnn1-c1cccc(F)c1 (stereo not shown) [Example 5, N-{4-chloro-2-[2-(trifluoromethyl)pyrimidin-4-yl]benzyl}-1-[1-(3-fluorophenyl)-5-methyl-1H-pyrazol-4-yl]-N-{[1-(1,3-thiazol-2-yl)-1H-pyrrol-2-yl]methyl}ethanamine] | > 110 nM | 0.11 µM | 
3 | Cc1cccc(C)c1-n1ccc(CN(Cc2cccn2-c2nccs2)C(C)c2cnn(-c3cccc(F)c3)c2C)c1 (stereo not shown) [Example 6, N-{[1-(2,6-dimethylphenyl)-1H-pyrrol-3-yl]methyl}-1-[1-(3-fluorophenyl)-5-methyl-1H-pyrazol-4-yl]-N-{[1-(1,3-thiazol-2-yl)-1H-pyrrol-2-yl]methyl}ethanamine] | > 570 nM | 0.57 µM | 
4 | Cn1nccc1N(Cc1cccn1-c1nncs1)Cc1cccn1-c1nncs1 [Example 9, 1-methyl-N,N-bis{[1-(1,3,4-thiadiazol-2-yl)-1H-pyrrol-2-yl]methyl}-1H-pyrazol-5-amine] | 4900 nM | >32 µM | 
5 | C[C@H](c1ccc(F)cc1)N(Cc1cccn1-c1nncs1)Cc1cccn1-c1nncs1 [Example 13, (1R)-1-(4-fluorophenyl)-N,N-bis{[1-(1,3,4-thiadiazol-2-yl)-1H-pyrrol-2-yl]methyl}ethanamine] | 14000 nM | 93 µM | 
6 | Clc1cnc(CN(Cc2cccn2-c2nncs2)Cc2cccn2-c2nncs2)c(Cl)c1 [Example 14, 1-(3,5-dichloropyridin-2-yl)-N,N-bis{[1-(1,3,4-thiadiazol-2-yl)-1H-pyrrol-2-yl]methyl}methanamine] | 4800 nM | 90 µM | 
7 | CC(c1ccc(Cl)c(Cl)c1)N(Cc1cccn1-c1nncs1)Cc1cccn1-c1nncs1 (stereo not shown) [Example 17, 1-(3,4-dichlorophenyl)-N,N-bis{[1-(1,3,4-thiadiazol-2-yl)-1H-pyrrol-2-yl]methyl}ethanamine] | 15000 nM | >32 µM | 
8 | C[C@H](c1ccccc1Cl)N(Cc1cccn1-c1nncs1)Cc1cccn1-c1nncs1 [Example 19, (1R)-1-(2-chlorophenyl)-N,N-bis{[1-(1,3,4-thiadiazol-2-yl)-1H-pyrrol-2-yl]methyl}ethanamine] | 2800 nM | >32 µM | 
9 | c1ccc(N(Cc2cccn2-c2nncs2)Cc2cccn2-c2nncs2)cc1 [Example 22, N,N-bis{[1-(1,3,4-thiadiazol-2-yl)-1H-pyrrol-2-yl]methyl}aniline] | 28000 nM | >32 µM | 
10 | c1cncc(C2(CCN(Cc3cccn3-c3nncs3)Cc3cccn3-c3nncs3)CC2)c1 [Example 24, 2-[1-(pyridin-3-yl)cyclopropyl]-N,N-bis{[1-(1,3,4-thiadiazol-2-yl)-1H-pyrrol-2-yl]methyl}ethanamine] | 2900 nM | >100 µM | 
11 | CC(Cc1cccs1)N(Cc1cccn1-c1nncs1)Cc1cccn1-c1nncs1 (stereo not shown) [Example 25, N,N-bis{[1-(1,3,4-thiadiazol-2-yl)-1H-pyrrol-2-yl]methyl}-1-(thiophen-2-yl)propan-2-amine] | 7500 nM |  | 55 µM

Continued, in another order:

Row | EC50 [1] | SMILES | MTT TD50 [2, 3] | MTT TD50 ([2]; human, 4 days)
12 | 120 nM | Cc1c(C(C)N(Cc2cccn2-c2nccs2)Cc2cccn2-c2nccs2)cnn1-c1cccc(F)c1 (racemic) [Example 1, 1-[1-(3-fluorophenyl)-5-methyl-1H-pyrazol-4-yl]-N,N-bis{[1-(1,3-thiazol-2-yl)-1H-pyrrol-2-yl]methyl}ethanamine] | 11 µM | 
13 | 71 nM | Cc1c([C@H](C)N(Cc2cccn2-c2nccs2)Cc2cccn2-c2nccs2)cnn1-c1cccc(F)c1 [Example 2, (1S)-1-[1-(3-fluorophenyl)-5-methyl-1H-pyrazol-4-yl]-N,N-bis{[1-(1,3-thiazol-2-yl)-1H-pyrrol-2-yl]methyl}ethanamine] | >32 µM | 
14 | 960 nM | Cc1c([C@@H](C)N(Cc2cccn2-c2nccs2)Cc2cccn2-c2nccs2)cnn1-c1cccc(F)c1 [Example 3, (1R)-1-[1-(3-fluorophenyl)-5-methyl-1H-pyrazol-4-yl]-N,N-bis{[1-(1,3-thiazol-2-yl)-1H-pyrrol-2-yl]methyl}ethanamine] | >32 µM | 
15 | 320 nM | Cc1c(C(C)N(Cc2ncc(-c3ccccc3)n2C)Cc2ncc(-c3ccccc3)n2C)cnn1-c1cccc(F)c1 (stereo not shown) [Example 7, 1-[1-(3-fluorophenyl)-5-methyl-1H-pyrazol-4-yl]-N,N-bis[(1-methyl-5-phenyl-1H-imidazol-2-yl)methyl]ethanamine] | 5.2 µM | 
16 | 240 nM | COc1ccc(CN(Cc2cccn2-c2nncs2)Cc2cccn2-c2nncs2)c(OC)c1 [Example 8, 1-(2,4-dimethoxyphenyl)-N,N-bis{[1-(1,3,4-thiadiazol-2-yl)-1H-pyrrol-2-yl]methyl}methanamine] | 22 µM | 
17 | 520 nM | c1ccc(CN(Cc2cccn2-c2nncs2)Cc2cccn2-c2nncs2)cc1 [Example 10, 1-phenyl-N,N-bis{[1-(1,3,4-thiadiazol-2-yl)-1H-pyrrol-2-yl]methyl}methanamine] | 97 µM | 
18 | 560 nM | c1cc(CN(Cc2cccn2-c2nncs2)CC2C[C@H]3CC[C@@H]2C3)n(-c2nncs2)c1 (stereo partly drawn) [Example 11, 1-[(1R,4S)-bicyclo[2.2.1]hept-2-yl]-N,N-bis{[1-(1,3,4-thiadiazol-2-yl)-1H-pyrrol-2-yl]methyl}methanamine] | 26 µM | 
19 | 64 nM | Cc1ccccc1CN(Cc1cccn1-c1nncs1)Cc1cccn1-c1nncs1 [Example 12, 1-(2-methylphenyl)-N,N-bis{[1-(1,3,4-thiadiazol-2-yl)-1H-pyrrol-2-yl]methyl}methanamine] | >10 µM | 
20 | 120 nM | Fc1ccccc1CN(Cc1cccn1-c1nncs1)Cc1cccn1-c1nncs1 [Example 15, 1-(2-fluorophenyl)-N,N-bis{[1-(1,3,4-thiadiazol-2-yl)-1H-pyrrol-2-yl]methyl}methanamine] | 67 µM | 
21 | 2100 nM | FC(F)(F)c1cccc(CN(Cc2cccn2-c2nncs2)Cc2cccn2-c2nncs2)c1 [Example 16, 1-[1-(1,3,4-thiadiazol-2-yl)-1H-pyrrol-2-yl]-N-{[1-(1,3,4-thiadiazol-2-yl)-1H-pyrrol-2-yl]methyl}-N-[3-(trifluoromethyl)benzyl]methanamine] | 30 µM | 
22 | 62 nM | Clc1ccccc1CN(Cc1cccn1-c1nncs1)Cc1cccn1-c1nncs1 [Example 18, 1-(2-chlorophenyl)-N,N-bis{[1-(1,3,4-thiadiazol-2-yl)-1H-pyrrol-2-yl]methyl}methanamine] | >32 µM | 
23 | 360 nM | C[C@@H](c1ccccc1Cl)N(Cc1cccn1-c1nncs1)Cc1cccn1-c1nncs1 [Example 20, (1S)-1-(2-chlorophenyl)-N,N-bis{[1-(1,3,4-thiadiazol-2-yl)-1H-pyrrol-2-yl]methyl}ethanamine] | >32 µM | 
24 | 62 nM | c1ccc(C2(CCN(Cc3cccn3-c3nncs3)Cc3cccn3-c3nncs3)CC2)nc1 [Example 21, 2-[1-(pyridin-2-yl)cyclopropyl]-N,N-bis{[1-(1,3,4-thiadiazol-2-yl)-1H-pyrrol-2-yl]methyl}ethanamine] | >32 µM | 
25 | 2400 nM | FC1(F)CCC(CN(Cc2cccn2-c2nncs2)Cc2cccn2-c2nncs2)CC1 [Example 23, 1-(4,4-difluorocyclohexyl)-N,N-bis{[1-(1,3,4-thiadiazol-2-yl)-1H-pyrrol-2-yl]methyl}methanamine] | >100 µM | 
26 | 1100 nM | c1cncc(C2(CN(Cc3cccn3-c3nncs3)Cc3cccn3-c3nncs3)CC2)c1 [Example 26, 1-[1-(pyridin-3-yl)cyclopropyl]-N,N-bis{[1-(1,3,4-thiadiazol-2-yl)-1H-pyrrol-2-yl]methyl}methanamine] | >100 µM | 
